Literature values, collected in patent publication US6376468B1, “Protein:prenyl transferase inhibitors” (Nederlandse Organisatie Voor …, priority 1999, dated 2002).

Molecular target: T1, Ras farnesyl transferase from human colon carcinoma (Homo sapiens, UniProt P49354+P49356)
T1 construct: host or cells: human colon carcinoma
Conditions: J. Biol. Chem. 268 (1993), 20695-98

CSCCC(NC(=O)c1cccc(CNC(=O)C(N)CS)c1)C(=O)O (stereo not shown) [Cys-NH-CH2-mC6H4-CO-Met]
IC50: 60 nM
